Patent EP1891948A1, “Treatment of neurological and neuropsychological disorders” (Probiodrug AG, priority 2000, dated 2002)

How the values were obtained:
[1] = test system: WistarF/Han (WF) rats; assay: Social interaction (SI) test with Y1R antagonist pre-treatment (Example 4); format: in vivo; settings: i.c.v., isoleucyl thiazolidine 50nmol and/or NPY 0.8nmol, without antagonist; Fig. 10
Procedure: (§1) Animals. Male WistarF/Han (WF) rats (Central Animal Laboratory, Hannover Medical School, Hannover, Germany, see http://www.mh-hannover.de/institut/tierlabor/wf.htm for details), weighing 330±31 g±SD, were housed in a sound-proof, temperature controlled (24.0±0.5°C) room under specific pathogen free conditions with a 12/12h dark/light cycle (lights on at 07.00 with illumination level of 80 Lux). Food (Altromin lab chow pellets) and tap water were available ad libitum. Under ketamine/xylasine (100/5 mg/kg, i.p.) anesthesia, the rats were fixed in a Kopf stereotaxic frame and implanted with cannulae (Plastic One, Inc., Roanoke, VA, USA) above the lateral ventricle. All research and animal care procedures were approved by the Lower Saxony district government (Hannover, Germany) and followed principles described in the European Community's Council Directive of 24 November 1986 (86/609/EEC).
Surgery and i.c.v. application. […]
Animals were randomly divided into eight experimental groups (n=6-8/group), which completed one SI test of anxiety: (1) aCSF+aCSF+aCSF; (2) BIBP+aCSF+aCSF; (3) aCSF+isoleucyl thiazolidine+aCSF; (4) BIBP+isoleucyl thiazolidine+aCSF; (5) aCSF+aCSF+NPY; (6) BIBP+aCSF+NPY; (7) aCSF+P32/89+NPY; (8) BIBP+isoleucyl thiazolidine+NPY. […] The time spent in active social interaction (SI-time), 1h, and 12h food-intake were measured. […]
Social interaction (SI) test. […] Behavior was monitored using a video camera placed above the field inside the testing/isolation box. The SI behavior of both rats was recorded on-line from a monitor placed outside on top of the box. The following parameters were scored by an observer (HPN) unaware of the substrain of rats: duration of time spent in sniffing, following, crawling under and over other rats, but not passive body contact (resting, sleeping). […]
(§2) Statistical analysis. Data obtained from the measures SI time and 1h food intake were analyzed by one-way (factor: "treatment") ANOVA. […]

[2] = test system: WistarF/Han (WF) rats; assay: 1h food intake with Y1R antagonist pre-treatment (Example 4); format: in vivo; settings: i.c.v., isoleucyl thiazolidine 50nmol, Fig. 11
Procedure: as §1
Surgery and i.c.v. application. For surgery, rats were anesthetized and prepared with i.c.v. cannulae (coordinates: A:-0.7mm caudal, L:1.4mm lateral to bregma; and V3.2mm ventral to the skull surface; tooth bar +3.0 above ear bars) using standard stereotaxic procedures as described in detail elsewhere (von Hörsten et al., 1998a,b,c). After a 7-day recovery period, successful ventricle cannulation was confirmed by an angiotensin drinking response (von Hörsten et al., 1998a). Rats showing a positive drinking response (n=56) were then habituated to experimental handling by daily sham injections for seven days.
Animals were randomly divided into eight experimental groups (n=6-8/group), which completed one SI test of anxiety: (1) aCSF+aCSF+aCSF; (2) BIBP+aCSF+aCSF; (3) aCSF+isoleucyl thiazolidine+aCSF; (4) BIBP+isoleucyl thiazolidine+aCSF; (5) aCSF+aCSF+NPY; (6) BIBP+aCSF+NPY; (7) aCSF+P32/89+NPY; (8) BIBP+isoleucyl thiazolidine+NPY. Animals in each group were treated in an identical way in each phase, receiving i.c.v. injections -60mins and -55min before behavioral testing. Experiments spanned two nights with groups counterbalances on both dark cycles. The injection cannula was attached to a Hamilton microsyringe with approximately 30cm of polyethylene tubing and all compounds were infused in a total volume of 5.0µl at a rate of 5.0 µl/min using a TSE multichannel infusion pump (Bad Homburg, Germany). The time spent in active social interaction (SI-time), 1h, and 12h food-intake were measured.
Peptides and Antagonist. Rat neuropeptide Y1-36 was obtained from Polypeptide Laboratories (Wolfenbüttel, Germany). The NPY Y1 receptor antagonist BIBP3226 was purchased from American Peptide Company, Sunnyvale, CA, USA (Cat#:60-1-22B). […]
as §2

CCC(C)C(N)C(=O)N1CCSC1 (stereo not drawn) [isoleucyl thiazolidine]
anxiolytic-like effect in the SI test (SI-time) [1]: acts not anxiolytic-like
1h feeding under Y1R blockade ([2]; BIBP3226 100nmol pre-treatment, NPY 0.8nmol): blocked
1h food-intake ([2]; without antagonist): non-significant slight increase
